Reference: ChEMBL document CHEMBL1137334 (J Med Chem, 2006)
Values after ≈ are worked out from the molar mass of the structure shown.

Tests used:
[1] = target: Fibroblast growth factor receptor 1 (Homo sapiens, UniProt P11362); test: Inhibition of recombinant FGFR1 by ELISA
[2] = Inhibition of Chk; design: species or system Homo sapiens
[3] = Bioavailability in female rat at 25 mg/kg, po and 2 mg/kg, iv; type: ADME, organism-based; conditions: in vivo
[4] = Percent of unbound ligand in rat plasma; type: ADME, organism-based
[5] = Volume of distribution in male rat at 25 mg/kg, po and 2 mg/kg, iv; type: ADME, organism-based; conditions: in vivo, read-out: Vdss
[6] = target: c-Jun N-terminal kinase, JNK (Homo sapiens, UniProt P45983+P53779+P45984); test: Inhibition of JNK; type: protein assay
[7] = Half life in male dog; type: ADME, organism-based, Canis lupus familiaris; conditions: male, in vivo
[8] = target: Platelet-derived growth factor receptor alpha (Homo sapiens, UniProt P16234); test: Inhibition of recombinant PDGFRalpha by ELISA
Sequence of Platelet-derived growth factor receptor alpha (P16234 whole entry): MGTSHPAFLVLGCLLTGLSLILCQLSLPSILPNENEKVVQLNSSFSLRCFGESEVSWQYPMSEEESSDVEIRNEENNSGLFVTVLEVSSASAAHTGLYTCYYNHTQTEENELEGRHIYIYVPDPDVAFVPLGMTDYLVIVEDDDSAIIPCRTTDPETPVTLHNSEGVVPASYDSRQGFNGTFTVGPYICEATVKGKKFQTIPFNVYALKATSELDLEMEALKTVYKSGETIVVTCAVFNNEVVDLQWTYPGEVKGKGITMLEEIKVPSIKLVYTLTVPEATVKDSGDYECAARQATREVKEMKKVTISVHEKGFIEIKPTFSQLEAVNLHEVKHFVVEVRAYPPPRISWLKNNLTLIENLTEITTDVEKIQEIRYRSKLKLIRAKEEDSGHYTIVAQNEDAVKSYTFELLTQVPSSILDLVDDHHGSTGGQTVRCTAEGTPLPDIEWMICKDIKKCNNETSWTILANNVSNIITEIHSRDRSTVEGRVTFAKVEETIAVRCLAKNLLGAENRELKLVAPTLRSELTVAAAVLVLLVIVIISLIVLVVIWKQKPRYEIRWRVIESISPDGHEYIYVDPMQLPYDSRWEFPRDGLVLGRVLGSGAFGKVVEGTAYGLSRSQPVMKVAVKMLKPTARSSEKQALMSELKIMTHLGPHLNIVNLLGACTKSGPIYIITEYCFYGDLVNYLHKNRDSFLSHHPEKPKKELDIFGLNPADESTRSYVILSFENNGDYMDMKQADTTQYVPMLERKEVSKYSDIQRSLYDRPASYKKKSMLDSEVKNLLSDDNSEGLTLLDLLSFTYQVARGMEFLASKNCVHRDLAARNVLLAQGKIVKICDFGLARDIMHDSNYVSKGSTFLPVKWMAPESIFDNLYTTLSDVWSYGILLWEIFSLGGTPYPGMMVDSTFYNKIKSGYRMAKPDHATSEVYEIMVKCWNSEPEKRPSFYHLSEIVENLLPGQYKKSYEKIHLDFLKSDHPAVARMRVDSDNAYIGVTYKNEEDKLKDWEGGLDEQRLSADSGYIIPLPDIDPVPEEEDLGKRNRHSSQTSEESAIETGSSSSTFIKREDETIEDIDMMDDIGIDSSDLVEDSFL

[9] = target: 3-phosphoinositide-dependent protein kinase 1 (Homo sapiens, UniProt O15530); test: Inhibition of PDK
Sequence of 3-phosphoinositide-dependent protein kinase 1 (O15530 whole entry): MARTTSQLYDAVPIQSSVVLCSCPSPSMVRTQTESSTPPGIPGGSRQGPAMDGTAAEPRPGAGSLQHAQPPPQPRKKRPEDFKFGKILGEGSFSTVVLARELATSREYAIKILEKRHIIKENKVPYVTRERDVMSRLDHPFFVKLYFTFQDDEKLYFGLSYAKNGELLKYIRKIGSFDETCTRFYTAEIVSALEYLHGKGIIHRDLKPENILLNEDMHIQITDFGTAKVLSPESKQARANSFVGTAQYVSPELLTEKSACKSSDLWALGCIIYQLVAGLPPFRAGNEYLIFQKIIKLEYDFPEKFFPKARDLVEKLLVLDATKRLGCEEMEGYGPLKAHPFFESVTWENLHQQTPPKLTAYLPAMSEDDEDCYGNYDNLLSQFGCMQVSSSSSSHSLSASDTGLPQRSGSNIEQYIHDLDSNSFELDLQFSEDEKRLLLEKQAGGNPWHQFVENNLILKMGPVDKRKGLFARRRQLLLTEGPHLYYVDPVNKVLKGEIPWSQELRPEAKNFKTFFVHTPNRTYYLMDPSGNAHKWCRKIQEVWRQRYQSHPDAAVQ

Aurora kinase B = Aurora kinase B (Homo sapiens, UniProt Q96GD4); test: Inhibition of recombinant Aurora B by ELISA
Sequence of Aurora kinase B (Q96GD4 whole entry): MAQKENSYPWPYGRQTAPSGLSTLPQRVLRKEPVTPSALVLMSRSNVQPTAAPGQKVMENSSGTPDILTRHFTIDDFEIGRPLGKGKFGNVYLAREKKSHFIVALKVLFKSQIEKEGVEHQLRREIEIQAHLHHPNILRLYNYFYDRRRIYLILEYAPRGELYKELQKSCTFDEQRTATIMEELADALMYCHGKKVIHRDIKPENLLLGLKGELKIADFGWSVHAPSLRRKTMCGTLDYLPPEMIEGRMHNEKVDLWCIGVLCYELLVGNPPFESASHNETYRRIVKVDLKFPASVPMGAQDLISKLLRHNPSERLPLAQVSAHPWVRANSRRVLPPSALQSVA

[10] = Volume of distribution in male dog; type: ADME, organism-based, Canis lupus familiaris; conditions: male, in vivo, read-out: Vdss
[11] = Percent of unbound ligand in dog plasma; type: ADME, organism-based, Canis lupus familiaris
NIH3T3 = test: Antiproliferative activity against NIH 3T3 cells xenografted in athymic rat measured as inhibition of tumor volume at 6 mg/kg/day after 18 days; type: functional; conditions: NIH3T3, 432 h
[12] = (§1) Half life in rat at 25 mg/kg, po and 2 mg/kg, iv; type: ADME, organism-based; conditions: in vivo
[13] = target: Tyrosine-protein kinase CSK (Homo sapiens, UniProt P41240); test: Inhibition of recombinant CSK by ELISA
Sequence of Tyrosine-protein kinase CSK (P41240 whole entry): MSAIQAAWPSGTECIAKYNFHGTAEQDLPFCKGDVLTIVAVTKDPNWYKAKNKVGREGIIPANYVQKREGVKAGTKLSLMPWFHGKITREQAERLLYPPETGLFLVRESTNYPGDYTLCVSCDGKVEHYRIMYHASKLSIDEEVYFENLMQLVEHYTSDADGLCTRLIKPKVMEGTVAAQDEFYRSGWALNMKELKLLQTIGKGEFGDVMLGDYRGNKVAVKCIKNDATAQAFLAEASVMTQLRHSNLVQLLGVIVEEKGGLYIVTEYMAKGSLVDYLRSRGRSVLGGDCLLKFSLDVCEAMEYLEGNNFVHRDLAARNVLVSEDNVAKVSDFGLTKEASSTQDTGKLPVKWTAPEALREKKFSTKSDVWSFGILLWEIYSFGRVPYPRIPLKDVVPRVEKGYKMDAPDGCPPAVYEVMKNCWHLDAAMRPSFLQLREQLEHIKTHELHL

[14] = Clearance in male rat at 25 mg/kg, po and 2 mg/kg, iv; type: ADME, organism-based; conditions: in vivo
[15] = Dissociation constant, pKa of the basic side chain of compound; type: physicochemical
[16] = Lipophilicity, log D at pH 7.4; type: physicochemical; conditions: buffer
A549 [17] = test: Inhibition of paxillin phosphorylation in A549 cells by Western blotting at 1 uM; type: functional; conditions: Homo sapiens
[18] = as §1; type: ADME, organism-based; conditions: in vivo; remark: listed apart in the source
[19] = target: Vascular endothelial growth factor receptor 3 (Homo sapiens, UniProt P35916); test: Inhibition of FLT4 by ELISA
[20] = target: Vascular endothelial growth factor receptor 1 (Homo sapiens, UniProt P17948); test: Inhibition of recombinant FLT1 by ELISA
[21] = AUC (0-24h) in mouse at 20 mg/kg, po; type: ADME, organism-based; design: time < 24 hr, dose 20 mg/kg, route oral; conditions: plasma
[22] = Bioavailability in male rat at 25 mg/kg, po and 2 mg/kg, iv; type: ADME, organism-based; conditions: in vivo
[23] = Permeability from apical to basolateral side of NIH 3T3 cell; type: ADME, cell-based, NIH3T3; conditions: mouse, not told; read-out: permeability
[24] = Bioavailability in male dog; type: ADME, organism-based, Canis lupus familiaris; conditions: in vivo
Calu-6 [25] = test: Inhibition of paxillin phosphorylation in Calu-6 xenograft tumor model at 20 mg/kg/day, po; type: functional; conditions: Homo sapiens
[26] = Clearance in female rat at 25 mg/kg, po and 2 mg/kg, iv; type: ADME, organism-based; conditions: in vivo
[27] = Inhibition of PI3K; design: species or system Homo sapiens
[28] = target: Vascular endothelial growth factor receptor 2 (Homo sapiens, UniProt P35968); test: Inhibition of KDR
Sequence of Vascular endothelial growth factor receptor 2 (P35968 whole entry): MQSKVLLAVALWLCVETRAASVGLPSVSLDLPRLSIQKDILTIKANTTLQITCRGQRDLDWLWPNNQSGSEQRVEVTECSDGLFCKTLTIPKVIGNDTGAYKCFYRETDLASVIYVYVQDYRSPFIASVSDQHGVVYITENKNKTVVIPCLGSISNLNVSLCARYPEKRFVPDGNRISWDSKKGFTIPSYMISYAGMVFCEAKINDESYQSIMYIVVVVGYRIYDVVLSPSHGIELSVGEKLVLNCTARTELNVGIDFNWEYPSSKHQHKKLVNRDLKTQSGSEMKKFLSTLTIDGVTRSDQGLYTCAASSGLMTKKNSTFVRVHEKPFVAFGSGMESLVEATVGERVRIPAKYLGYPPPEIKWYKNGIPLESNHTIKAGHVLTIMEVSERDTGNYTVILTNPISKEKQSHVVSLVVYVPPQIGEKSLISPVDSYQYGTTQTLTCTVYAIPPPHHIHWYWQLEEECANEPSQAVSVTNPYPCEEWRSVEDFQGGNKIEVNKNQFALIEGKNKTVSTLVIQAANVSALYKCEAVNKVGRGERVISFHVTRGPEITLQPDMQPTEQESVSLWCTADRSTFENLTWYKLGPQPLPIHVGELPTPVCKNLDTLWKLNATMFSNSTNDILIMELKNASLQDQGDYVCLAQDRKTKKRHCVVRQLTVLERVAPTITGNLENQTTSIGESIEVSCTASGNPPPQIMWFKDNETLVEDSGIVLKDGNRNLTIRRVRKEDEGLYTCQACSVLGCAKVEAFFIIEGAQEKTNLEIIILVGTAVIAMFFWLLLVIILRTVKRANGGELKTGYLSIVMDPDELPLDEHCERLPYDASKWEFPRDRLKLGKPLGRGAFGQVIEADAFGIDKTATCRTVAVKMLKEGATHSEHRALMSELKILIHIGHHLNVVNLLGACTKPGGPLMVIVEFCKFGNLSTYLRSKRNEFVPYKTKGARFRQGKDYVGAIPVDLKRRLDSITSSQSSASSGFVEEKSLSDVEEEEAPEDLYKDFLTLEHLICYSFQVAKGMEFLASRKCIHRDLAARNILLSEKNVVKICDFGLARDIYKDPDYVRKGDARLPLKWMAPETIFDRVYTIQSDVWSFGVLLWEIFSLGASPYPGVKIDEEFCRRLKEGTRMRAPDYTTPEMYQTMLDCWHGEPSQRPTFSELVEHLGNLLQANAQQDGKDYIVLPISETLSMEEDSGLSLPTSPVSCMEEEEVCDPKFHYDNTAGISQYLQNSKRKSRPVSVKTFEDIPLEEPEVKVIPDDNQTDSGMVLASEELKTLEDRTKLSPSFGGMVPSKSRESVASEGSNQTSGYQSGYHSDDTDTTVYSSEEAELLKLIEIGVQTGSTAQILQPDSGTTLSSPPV

[29] = Clearance in male dog; type: ADME, organism-based, Canis lupus familiaris; conditions: in vivo
[30] = Aqueous solubility at pH 7.0; type: physicochemical
A549 [31] = test: Inhibition of A549 cell migration by microdroplet migration assay; type: functional, cell-based; conditions: Homo sapiens
[32] = target: Dual specificity mitogen-activated protein kinase kinase; MEK1/2 (Homo sapiens, UniProt P36507+Q02750); test: Inhibition of MAPKK; type: protein assay
[33] = target: Cyclin-dependent kinase 2 (Homo sapiens, UniProt P24941); test: Inhibition of CDK2 by SPA
[34] = Percent of unbound ligand in human plasma; type: ADME, organism-based
[35] = target: Glycogen synthase kinase-3 beta (Homo sapiens, UniProt P49841); test: Inhibition of GSK3-beta
Sequence of Glycogen synthase kinase-3 beta (P49841 whole entry): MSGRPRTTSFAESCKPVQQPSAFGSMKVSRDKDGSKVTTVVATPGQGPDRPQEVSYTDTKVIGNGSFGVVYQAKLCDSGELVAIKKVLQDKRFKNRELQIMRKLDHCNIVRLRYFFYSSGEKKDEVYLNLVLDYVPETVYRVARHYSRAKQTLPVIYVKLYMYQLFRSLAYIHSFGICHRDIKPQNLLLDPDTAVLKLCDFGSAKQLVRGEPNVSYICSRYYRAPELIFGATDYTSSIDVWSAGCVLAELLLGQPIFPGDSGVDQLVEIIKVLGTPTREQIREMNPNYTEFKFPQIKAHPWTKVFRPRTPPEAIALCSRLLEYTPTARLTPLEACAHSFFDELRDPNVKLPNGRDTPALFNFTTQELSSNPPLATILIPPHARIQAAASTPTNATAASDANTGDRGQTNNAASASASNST

Calu-6 [36] = test: Inhibition of FAK phosphorylation in Calu-6 xenograft tumor model at 20 mg/kg/day, po; type: functional; conditions: Homo sapiens
[37] = Volume of distribution in female rat at 25 mg/kg, po and 2 mg/kg, iv; type: ADME, organism-based; conditions: in vivo, read-out: Vdss
[38] = target: cAMP-dependent protein kinase (PKA) (Homo sapiens, UniProt P22694+P17612+P22612); test: Inhibition of PKA; type: protein assay
HUVEC [39] = test: Inhibition of FGF-stimulated HUVEC cell growth; type: functional, cell-based; conditions: Homo sapiens
[40] = Terminal half life in po dosed human; type: ADME, organism-based; conditions: in vivo, read-out: beta t1/2 (converted)
HUVEC [41] = test: Inhibition of VEGF-stimulated HUVEC cell growth; type: functional, cell-based; conditions: Homo sapiens
K562 = test: Antiproliferative activity against huamn K562 cell line; type: functional, cell-based; conditions: Homo sapiens

Sequence of Fibroblast growth factor receptor 1 (P11362 whole entry): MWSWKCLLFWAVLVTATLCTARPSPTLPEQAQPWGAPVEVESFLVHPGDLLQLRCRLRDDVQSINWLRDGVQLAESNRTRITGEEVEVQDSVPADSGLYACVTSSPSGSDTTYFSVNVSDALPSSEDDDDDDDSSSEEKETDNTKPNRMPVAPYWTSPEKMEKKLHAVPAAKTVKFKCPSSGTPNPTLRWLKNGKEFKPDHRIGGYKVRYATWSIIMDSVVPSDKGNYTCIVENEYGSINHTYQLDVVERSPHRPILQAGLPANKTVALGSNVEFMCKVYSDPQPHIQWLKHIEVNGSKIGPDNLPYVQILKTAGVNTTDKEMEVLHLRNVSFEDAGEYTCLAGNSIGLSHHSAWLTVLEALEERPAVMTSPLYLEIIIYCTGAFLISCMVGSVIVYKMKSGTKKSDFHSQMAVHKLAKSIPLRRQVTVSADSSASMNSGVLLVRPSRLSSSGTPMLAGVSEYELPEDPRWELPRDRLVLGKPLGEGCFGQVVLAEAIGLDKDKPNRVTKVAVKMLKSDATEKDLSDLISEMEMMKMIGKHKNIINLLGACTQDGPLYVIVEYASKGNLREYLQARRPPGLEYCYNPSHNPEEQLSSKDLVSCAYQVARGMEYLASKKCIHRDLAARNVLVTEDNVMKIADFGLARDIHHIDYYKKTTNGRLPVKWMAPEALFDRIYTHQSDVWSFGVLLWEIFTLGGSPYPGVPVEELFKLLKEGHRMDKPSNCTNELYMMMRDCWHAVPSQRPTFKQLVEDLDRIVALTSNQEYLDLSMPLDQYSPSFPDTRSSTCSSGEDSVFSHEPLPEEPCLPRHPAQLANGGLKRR

CN1CCN(CCOc2cc(OC3CCOCC3)c3c(Nc4c(Cl)ccc5c4OCO5)ncnc3c2)CC1 [SARACATINIB]
IC50 [1]: > 10 µM
IC50 [2]: > 10 µM
bioavailability [3]: 92%
fraction unbound [4]: 0.13
Vd [5]: 10 L/kg
IC50 [6]: > 10 µM
half-life [7]: 7 h
IC50 [8]: 10 µM
IC50 [9]: > 10 µM
IC50 (Aurora kinase B): > 10 µM
Vd [10]: 11.6 L/kg
fraction unbound [11]: 0.14
inhibition in vivo at 6 mg/kg/day (NIH3T3): > 95%
half-life [12]: 5 h
IC50 [13]: 0.84 µM
clearance [14]: 20 mL/min/kg
pKa [15]: 7.98
logD [16]: 2.9
inhibition at 1 µM (A549 [17]): 70%
half-life [18]: 5 h
IC50 [19]: > 10 µM
IC50 [20]: > 100 µM
AUC(0-t) at 24 h [21]: 12000 ng·h/mL
bioavailability [22]: 79%
Papp A→B [23]: > 30 ×10⁻⁶ cm/s
bioavailability [24]: > 50%
inhibition in vivo at 20 mg/kg/day (Calu-6 [25]): > 80%
clearance [26]: 16.7 mL/min/kg
IC50 [27]: > 10 µM
IC50 [28]: 20.9 µM
clearance [29]: 11.7 mL/min/kg
solubility [30]: 240 µM (≈ 130 µg/mL)
IC50 (A549 [31]): 0.14 µM
IC50 [32]: 14 µM
IC50 [33]: 10 µM
fraction unbound [34]: 0.09
IC50 [35]: > 10 µM
inhibition in vivo at 20 mg/kg/day (Calu-6 [36]): > 80%
Vd [37]: 10 L/kg
IC50 [38]: > 10 µM
IC50 (HUVEC [39]): > 5 µM
half-life [40]: 40 h
IC50 (HUVEC [41]): > 5 µM
IC50 (K562): 0.22 µM
